Measurements as given in US10350271B2, “Lipidated peptides for lowering blood glucose” (USTAV ORGANICKE CHEMIE A BIOCHEMIE AKADEMIE VED CR, V.V.I., priority 2014, dated 2019).
Square brackets hold non-standard residues; d marks the D form. Ends that are not written are not given here. Peptide text beside a SMILES is read from it. * marks the point of attachment. Palmitoyl = CCCCCCCCCCCCCCCC(=O)*; Myristoyl = CCCCCCCCCCCCCC(=O)*; Nle = CCCC[C@H](N)C(=O)O

Legend:
rat PrRP receptor = molecular target: T1, rat PrRP receptor (Rattus norvegicus, UniProt Q64121); experiment: Competitive binding in RC-4B/C rat pituitary cells (125I-rat PrRP31); details: for Ki / Binding affinity: RC-4B/C cells; for Ki: displacement of 125I-rat PrRP31, read-out: Ki, RC-4B/C rat pituitary cells ^25I-rat PrRP31; for % of PrRP31, RC-4B/C rat pituitary cells: affinity relative to PrRP31; for Binding affinity: statements referring to Table 2
T1 construct: host or cells: RC-4B/C rat pituitary cell line
T1 sequence (Q64121 1-370): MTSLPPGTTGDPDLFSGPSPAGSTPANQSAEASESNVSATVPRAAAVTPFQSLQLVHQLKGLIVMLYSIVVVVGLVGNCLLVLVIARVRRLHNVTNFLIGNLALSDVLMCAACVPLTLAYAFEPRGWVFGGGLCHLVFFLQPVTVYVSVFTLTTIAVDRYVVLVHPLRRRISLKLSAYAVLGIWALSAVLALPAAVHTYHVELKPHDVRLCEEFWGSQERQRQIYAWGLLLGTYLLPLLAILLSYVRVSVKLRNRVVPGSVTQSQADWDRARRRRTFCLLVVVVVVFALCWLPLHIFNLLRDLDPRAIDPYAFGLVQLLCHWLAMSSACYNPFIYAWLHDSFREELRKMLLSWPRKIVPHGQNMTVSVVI
Outline: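 Displacement of rat 125I-PrRP31 ([…]) by test analogs, 10^−11–10^−4 mol·l^−1, on whole RC-4B/C cells, 60 min RT. Bound counts measured by γ-counter in duplicate, ≥3 repeats, analyzed by nonlinear one-site binding regression.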

C57BL/6 mice = experiment: Food intake in fasted mice after SC injection; type: in vivo; details: for Food intake in mice % of saline-treated group: 5 mg/kg SC, 45 min after injection; for Effect on food intake in mice: SC
Method: NMRI mice, C57BL/6 mice, and Wistar rats (AnLab, Prague, Czech Republic) were housed in a temperature of 23° C. and a daily cycle of 12 h light and dark (light from 6:00). They were given ad libitum water and a standard chow diet that contained 25, 9 and 66% of calories of protein, fat and carbohydrate respectively. Energy content of the feed was 3.4 kcal/g (St-1, Mlýn Kocanda, Czech Republic). Db/db mice and their controls (C57BL/6 background) were obtained from Taconic (Denmark), housed under the same conditions as described above, and fed by Altromin (Taconic, Denmark). ZDF-Lepr^fa/Crl, diabetic fa/fa male rats were obtained from Charles River (France), housed under same conditions as described above, and fed with a Purina 5008 diet (IPS Product Supplies Limited, UK). All experiments followed the ethical guidelines for animal experiments and the law of the Czech Republic Nr. 246/1992.
In experiments with C57BL/6 mice or Wistar rats, food intake was measured with overnight fasted animals in individual cages. Food was withdrawn 17 hours prior to injection of lipidated analog of prolactin releasing peptide (PrRP); free access to water was maintained. The administration of either saline, PrRP, or lipidated analogs was performed by SC injection at doses of 1-10 mg/kg (which corresponded to a volume of 0.2 ml/mouse and 0.1 ml/100 g weight of rat). Fifteen minutes after the lipidated analog of prolactin releasing peptide (PrRP) administration, the mice were given pre-weighed food. The food was then weighed every 30 minutes for 5-10 hours. The administration of each dose was performed at least twice, and each group of mice consisted of at least 6 mice.

Row | Molecule | Ki (rat PrRP receptor) [nM] | % of PrRP31, RC-4B/C rat pituitary cells (rat PrRP receptor) [%] | Binding affinity (rat PrRP receptor) | Food intake in mice % of saline-treated group (C57BL/6 mice) [%] | Effect on food intake in mice (C57BL/6 mice)
1 | CCCCCCCCCCCCCC(=O)N[C@@H](CO)C(=O)N[C@@H](Cc1c[nH]cn1)C(=O)N[C@@H](CCC(N)=O)C(=O)N[C@@H](CCCNC(=N)N)C(=O)N1CCC[C@H]1C(=O)N[C@@H](C)C(=O)N[C@@H](CC(=O)O)C(=O)N[C@H](C(=O)N[C@@H](Cc1c[nH]cn1)C(=O)N[C@@H](Cc1c[nH]c2ccccc12)C(=O)N[C@@H](Cc1ccc(O)cc1)C(=O)N1CCC[C@H]1C(=O)N[C@@H](CCCNC(=N)N)C(=O)NCC(=O)N[C@@H](CCCC)C(=O)N[C@@H](Cc1ccccc1)C(=O)N1CCC[C@H]1C(=O)N[C@H](C(=O)N[C@H](C(=O)NCC(=O)N[C@@H](CCCNC(=N)N)C(=O)N[C@H](C(=O)N[C@H](C(=O)N[C@@H](C)C(=O)N[C@@H](CCCNC(=N)N)C(=O)N[C@@H](CC(N)=O)C(=O)NCC(=O)N[C@@H](CCC(=O)O)C(=O)N[C@H](C(=O)N[C@@H](CO)C(=O)N[C@@H](CCCNC(=N)N)C(N)=O)C(C)C)[C@@H](C)O)[C@@H](C)CC)[C@@H](C)CC)[C@@H](C)O)[C@@H](C)O [Analog 20] (Myristoyl-SHQRPADTHWYPRG[Nle]FPTIGRITARNGEVSR-NH2) | – | – | very low binding affinity | – | no effect
2 | CCCCCCCCCCCCCC(=O)N[C@@H](CO)C(=O)N[C@@H](CCCNC(=N)N)C(=O)N[C@@H](C)C(=O)N[C@@H](Cc1c[nH]cn1)C(=O)N[C@@H](CCC(N)=O)C(=O)N[C@@H](Cc1c[nH]cn1)C(=O)N[C@@H](CO)C(=O)N[C@@H](CCSC)C(=O)N[C@@H](CCC(=O)O)C(=O)N[C@H](C(=O)N[C@@H](CCCNC(=N)N)C(=O)N[C@H](C(=O)N1CCC[C@H]1C(=O)N[C@@H](CC(=O)O)C(=O)N[C@H](C(=O)N[C@@H](CC(N)=O)C(=O)N1CCC[C@H]1C(=O)N[C@@H](C)C(=O)N[C@@H](Cc1c[nH]c2ccccc12)C(=O)N[C@@H](Cc1ccc(O)cc1)C(=O)N[C@H](C(=O)NCC(=O)N[C@@H](CCCNC(=N)N)C(=O)NCC(=O)N[C@H](C(=O)N[C@@H](CCCNC(=N)N)C(=O)N1CCC[C@H]1C(=O)N[C@H](C(=O)NCC(=O)N[C@@H](CCCNC(=N)N)C(=O)N[C@@H](Cc1ccccc1)C(N)=O)C(C)C)[C@@H](C)CC)[C@@H](C)O)[C@@H](C)CC)[C@@H](C)O)[C@@H](C)O [Analog 46] (Myristoyl-SRAHQHSMETRTPDINPAWYTGRGIRPVGRF-NH2) | – | 657 | – | 20 | –
3 | CC[C@H](C)[C@H](NC(=O)CNC(=O)[C@H](CCCNC(=N)N)NC(=O)[C@H](CO)NC(=O)[C@H](C)NC(=O)[C@H](Cc1ccc(O)cc1)NC(=O)[C@H](Cc1c[nH]c2ccccc12)NC(=O)[C@H](C)NC(=O)[C@@H]1CCCN1C(=O)[C@H](CC(N)=O)NC(=O)[C@@H](NC(=O)[C@H](CC(=O)O)NC(=O)[C@@H]1CCCN1C(=O)[C@@H](NC(=O)[C@H](CCCNC(=N)N)NC(=O)[C@@H](NC(=O)[C@H](CCC(=O)O)NC(=O)[C@H](CCSC)NC(=O)[C@H](CO)NC(=O)[C@H](Cc1c[nH]cn1)NC(=O)[C@H](CCCNC(=N)N)NC(=O)[C@H](Cc1c[nH]cn1)NC(=O)[C@@H](NC(=O)[C@H](CCCNC(=N)N)NC(=O)[C@@H](N)CO)[C@@H](C)O)[C@@H](C)CC)[C@@H](C)O)[C@@H](C)CC)C(=O)N[C@@H](CCCNC(=N)N)C(=O)N1CCC[C@H]1C(=O)N[C@H](C(=O)NCC(=O)N[C@@H](CCCNC(=N)N)C(=O)N[C@@H](Cc1ccccc1)C(N)=O)C(C)C [Human PrRP31, reference compound] | 2.38 ± 0.19 | 207 | – | 100 | –
4 | CCCCCCCCCCCCCC(=O)N[C@H](Cc1ccccc1)C(=O)N[C@H](CCCNC(=N)N)C(=O)NCC(=O)N[C@H](C(=O)N1CCC[C@H]1C(=O)N[C@@H](CCCNC(=N)N)C(=O)N[C@H](C(=O)NCC(=O)N[C@@H](CCCNC(=N)N)C(=O)NCC(=O)N[C@H](C(=O)N[C@@H](Cc1ccc(O)cc1)C(=O)N[C@@H](Cc1c[nH]c2ccccc12)C(=O)N[C@@H](C)C(=O)N1CCC[C@H]1C(=O)N[C@@H](CC(N)=O)C(=O)N[C@H](C(=O)N[C@@H](CC(=O)O)C(=O)N1CCC[C@H]1C(=O)N[C@H](C(N)=O)[C@@H](C)O)[C@@H](C)CC)[C@@H](C)O)[C@@H](C)CC)C(C)C [Analog 26] (Myristoyl-[dF][dR]GVPRIGRGTYWAPNIDPT-NH2) | – | 1.4 | very low binding affinity | 100 | no effect

Now from value to molecule, other results behind:

Row | Ki (rat PrRP receptor) [nM] | % of PrRP31, RC-4B/C rat pituitary cells (rat PrRP receptor) [%] | Binding affinity (rat PrRP receptor) | Molecule | Food intake in mice % of saline-treated group (C57BL/6 mice) [%] | Effect on food intake in mice (C57BL/6 mice)
5 | 1.78 ± 0.46 | 277 | – | TPDINPAWYASRGIRPVGRF-NH2 [Human PrRP20, reference compound] | 100 | –
6 | – | – | very low binding affinity | CCCC[C@H](NC(=O)CNC(=O)[C@H](CCCNC(=N)N)NC(=O)[C@@H]1CCCN1C(=O)[C@H](Cc1ccc(O)cc1)NC(=O)[C@H](Cc1c[nH]c2ccccc12)NC(=O)[C@H](Cc1c[nH]cn1)NC(=O)[C@@H](NC(=O)[C@H](CC(=O)O)NC(=O)[C@H](C)NC(=O)[C@@H]1CCCN1C(=O)[C@H](CCCNC(=N)N)NC(=O)[C@H](CCC(N)=O)NC(=O)[C@H](Cc1c[nH]cn1)NC(=O)[C@@H](N)CO)[C@@H](C)O)C(=O)N[C@@H](Cc1ccccc1)C(=O)N1CCC[C@H]1C(=O)N[C@H](C(=O)N[C@H](C(=O)NCC(=O)N[C@@H](CCCNC(=N)N)C(=O)N[C@H](C(=O)N[C@H](C(=O)N[C@@H](C)C(=O)N[C@@H](CCCNC(=N)N)C(=O)N[C@@H](CC(N)=O)C(=O)NCC(=O)N[C@@H](CCC(=O)O)C(=O)N[C@H](C(=O)N[C@@H](CO)C(=O)N[C@@H](CCCNC(=N)N)C(N)=O)C(C)C)[C@@H](C)O)[C@@H](C)CC)[C@@H](C)CC)[C@@H](C)O [Analog 19] (H-SHQRPADTHWYPRG[Nle]FPTIGRITARNGEVSR-NH2) | – | no effect
7 | – | 1202 | – | CCCCCCCCCCCCCCCC(=O)N[C@@H](CO)C(=O)N[C@@H](CCCNC(=N)N)C(=O)N[C@@H](C)C(=O)N[C@@H](Cc1c[nH]cn1)C(=O)N[C@@H](CCC(N)=O)C(=O)N[C@@H](Cc1c[nH]cn1)C(=O)N[C@@H](CO)C(=O)N[C@@H](CCSC)C(=O)N[C@@H](CCC(=O)O)C(=O)N[C@H](C(=O)N[C@@H](CCCNC(=N)N)C(=O)N[C@H](C(=O)N1CCC[C@H]1C(=O)N[C@@H](CC(=O)O)C(=O)N[C@H](C(=O)N[C@@H](CC(N)=O)C(=O)N1CCC[C@H]1C(=O)N[C@@H](C)C(=O)N[C@@H](Cc1c[nH]c2ccccc12)C(=O)N[C@@H](Cc1ccc(O)cc1)C(=O)N[C@H](C(=O)NCC(=O)N[C@@H](CCCNC(=N)N)C(=O)NCC(=O)N[C@H](C(=O)N[C@@H](CCCNC(=N)N)C(=O)N1CCC[C@H]1C(=O)N[C@H](C(=O)NCC(=O)N[C@@H](CCCNC(=N)N)C(=O)N[C@@H](Cc1ccccc1)C(N)=O)C(C)C)[C@@H](C)CC)[C@@H](C)O)[C@@H](C)CC)[C@@H](C)O)[C@@H](C)O [Analog 47] (Palmitoyl-SRAHQHSMETRTPDINPAWYTGRGIRPVGRF-NH2) | 2 | –
